Measured values published in patent US8765783B2, “Pharmaceutical composition for treatment of disease due to vascular constriction or vasodilation” (Ono Pharmaceuticals Co., Ltd., priority 2002, dated 2014).

Legend:
SHR rat = assay: Blood pressure of SHR rat; type: in vivo; conditions: 1 mg/kg, 3 mg/kg and 10 mg/kg, i.v.; SHR rat under the awakening
Text: Rat (SHR/Crj, male, Charles River Japan Inc., 12 weeks old-13 weeks old) was anesthetized by ether, and then rat was fixed in the dorsal position on the laboratory table. Cannula filled with physiologic saline containing heparin was inserted into the femoral artery and cannula filled with physiologic saline was inserted into the femoral vein, respectively. After finish of the operation, rat was fixed in the ballmancage and left at rest until the awakening. The artery cannula was connected to the piezotransducer (DX-100, Nihon Kohden) and the blood pressure was measured through strain compression amplifier(AP-601G, Nihon Kohden). After about 30 minutes from confirming awakening of rat, the blood pressure was measured for additional 30 minutes and then, the compound (3) (1 mg/kg, 3 mg/kg, and 10 mg/kg, i.v.) or vehicle (10% DMSO/plasma) was administered intravenously. After administration, blood pressure was measured for more than 30 minutes. […] In contrast, the compound (3) had little effect on the heart rate.

removed rat heart = assay: Removed rat heart (Langendorff heart); conditions: Langendorff heart mode
Text: Rat (CD(SD)IGS, male, Charles River Japan Inc., 8 weeks old-10 weeks old, 300-450 g) was anesthetized by diethylether, opened the abdominal cavity, injected intravenously with heparin and then, exsanguinated to death. The heart was quickly removed by opening the chest cavity and the removed heart was immersed into cooled Krebs-Henseleit solution. The tissues were trimmed away under the cooling, aortic arches were inserted into the heart functional measuring equipment and fixed with sutures without leaking out. The rat heart function was measured using the heart functional measuring equipment (model IPH-W2, Labo-support). The equipment was used in the Langendorff Heart mode (non-working heart mode) and load was 68-70 mmHg. […] Catheter filled with physiological saline was inserted into the left ventricle, the catheter was connected to the piezotransducer (DX-100, Nihon Kohden) and the left ventricle pressure (LVP) was measured through strain compression amplifier (AP-601G, Nihon Kohden). Heart rate was calculated using LVP data with the heart rate measuring equipment (AT-601G, Nihon Kohden) and dLVP/dt was calculated with differential processor (EQ-641G, Nihon Kohden). Probes of electromagnetic flowmeter (model FF-020T, inside diameter 2 mm, Nihon Kohden) were set on the way to the passage of nutrient solution and the flow rate of nutrient solution (corresponding the blood flow rate of coronary artery) was measured using electromagnetic flowmeter (MFV-3100, Nihon Kohden). Administration of S1P and the compounds was performed by injection of dilution with nutrient solution into the passage of nutrient solution using infusion pump. The injection rate of drug solution was set as the flow rate of nutrient solution before starting of administration. […] Using the above mentioned model, effect of EDG-5 antagonist on heart function was examined. […] EDG-5 antagonist, the compound (1), the compound (2) and the compound (3) increased the flow rate of nutrient solution. In addition, they increased contractive force of heart muscle at the same time. […] It was considered that S1P had no direct chronotropic action and inotropic action on pacemaker and heart muscle and S1P had lowering effect on heart function by contracting the coronary blood vessels and ischemia.

Cc1nn(C)c2nc(NNC(=O)Nc3cc(Cl)nc(Cl)c3)cc(C(C)C)c12 [compound (3), N-(2,6-dichloro-4-piridinyl)-2-(4-isopropyl-1,3-dimethyl-1H-pyrazolo[3,4-b]pyridin-6-yl)hydrazinecarboxamide]
antihypertensive effect on SHR rat blood pressure (SHR rat): antihypertensive effect
flow rate of nutrient solution (corresponding the blood flow rate of coronary artery) (removed rat heart): increased
contractive force of heart muscle (removed rat heart; EDG-5 antagonist): increased
